Results on 36 compounds are retold here after US6506749B2, “7-oxo-pyridopyrimidines (I)” (Syntex (U.S.A.) LLC, priority 2000, dated 2003).

One data set concerns the target T1, p38 MAP kinase (Homo sapiens, UniProt Q16539).
T1 construct: made in house; host or cells: E. coli (co-expressed with SEK-1 and MEKK to phosphorylate p38)
Briefly: in vitro inhibition of p-38 (MAP) kinase, transfer of γ-33P from ATP to Myelin Basic Protein. It is filed as biochemical. The note with it: phosphorylated recombinant p38 MAP kinase; MBP substrate, γ-33P-ATP; 30° C. As to the method: This example illustrate an assay protocol for determining in vitro inhibition of p-38 (MAP) Kinase.
The phosphorylated form of the recombinant p38 MAP kinase was expressed with SEK-1 and MEKK in E. Coli and then purified by affinity chromatography using a Nickel column.
The phosphorylated p38 MAP kinase was diluted in kinase buffer (20 mM 3-(N-morpholino)propanesulfonic acid, pH 7.2, 25 mM β-glycerol phosphate, 5 mM ethylene glycol-bis(beta-aminoethyl ether)-N,N,N′,N′-tetraacetic acid, 1 mM sodium vanadate, 1 mM dithiothreitol, 40 mM magnesium chloride). Test compound dissolved in DMSO or only DMSO (control) was added and the samples were incubated for 10 min at 30° C. The kinase reaction was initiated by the addition of a substrate cocktail containing MBP and γ-^33P-ATP. After incubating for an additional 20 min at 30° C., the reaction was terminated by adding 0.75% phosphoric acid. The phosphorylated MBP was then separated from the residual γ-^33P-ATP using a phosphocellulose membrane (Millipore, Bedford, Mass.) and quantitated using a scintillation counter (Packard, Meriden, Conn.).

Molecules are shown by their SMILES. Where a name gives a salt, the structure may show the parent alone. A value given as a limit tells only on which side of the number the result lay.

T1 sequence (Q16539 whole entry): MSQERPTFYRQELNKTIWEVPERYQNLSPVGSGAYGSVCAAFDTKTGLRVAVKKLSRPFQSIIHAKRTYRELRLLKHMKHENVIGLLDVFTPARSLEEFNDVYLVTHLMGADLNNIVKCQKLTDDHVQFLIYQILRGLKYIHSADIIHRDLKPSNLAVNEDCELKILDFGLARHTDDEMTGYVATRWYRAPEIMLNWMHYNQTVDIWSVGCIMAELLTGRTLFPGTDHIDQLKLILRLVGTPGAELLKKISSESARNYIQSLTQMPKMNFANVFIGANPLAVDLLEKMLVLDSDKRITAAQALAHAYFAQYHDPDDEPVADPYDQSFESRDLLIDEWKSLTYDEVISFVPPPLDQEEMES

Regarding `Cl.O=c1c(-c2ccccc2Cl)cc2cnc(N[C@H]3CC[C@H](O)CC3)nc2n1C1CC1`, the melting point lay in the range of 241.7 to 242.3 °C.

`Cn1c(=O)c(-c2ccccc2Cl)cc2cnc(N[C@H]3CC[C@H](N)CC3)nc21` (as salt: HCl) [Example 38]: the melting point fell in the range of 163.4 to 171.1 °C.

With `O=c1c(-c2ccccc2Cl)cc2cnc(N[C@H]3CC[C@H](O)CC3)nc2n1Cc1ccccc1` (as salt: HCl) [Example 41], the melting point fell in the range of 202 to 206 °C.

`O=C1c2ccccc2C(=O)N1CCn1c(=O)c(-c2ccccc2Cl)cc2cnc(N[C@H]3CC[C@H](O)CC3)nc21` (as salt: HCl) [Example 77] gave a melting point of 208 to 210 °C.

`Cn1c(=O)c(-c2ccccc2Cl)cc2cnc(NC3CCSCC3)nc21` (as salt: HCl) [Example 78, 2-(4-tetrahydrothiopyranylamino)-6-(2-chlorophenyl)-8-methyl-8H-pyrido[2,3-d]pyrimidin-7-one]: the melting point is 232.1 to 233.1 °C.

On to `CS(=O)(=O)N1CCC(Nc2ncc3cc(-c4ccccc4Cl)c(=O)n(-c4ccc(F)cc4)c3n2)CC1` (as salt: HCl) [Example 96], for which the melting point was in the range of 165 to 169 °C.

On to `CS(=O)(=O)N[C@H]1CC[C@H](Nc2ncc3c(n2)=NC(=O)C(c2ccccc2Cl)C=3)CC1` (stereo partly drawn) (as salt: hydrochloric acid salt) [Example 16, 2-(trans-4-methanesulfonylaminocyclohexylamino)-6-(2-chlorophenyl)-pyrido[2,3-d]pyrimidin-7-one], for which the melting point was over 300 °C.

Consider `O=c1[nH]c2nc(N[C@H]3CC[C@H](O)CC3)ncc2cc1-c1ccccc1Cl` (as salt: hydrochloride) [Example 11, 2-(trans-4-hydroxycyclohexylamino)-6-(2-chlorophenyl)-pyrido[2,3-d]pyrimidin-7-ol], for which the melting point is 191.1 to 194.3 °C.

Take `Cn1c(=O)c(-c2ccccc2Cl)cc2cnc(N[C@H]3CC[C@H](N)CC3)nc21` (as salt: hydrochloride) [Example 13, 2-(trans-4-aminocyclohexylamino)-6-(2-chlorophenyl)-8-methyl-pyrido[2,3-d]pyrimidin-7-one]: the melting point was 190.3 to 191.4 °C.

With `Cn1c(=O)c(-c2ccccc2Cl)cc2cnc(N[C@H]3CC[C@H](NS(C)(=O)=O)CC3)nc21` (as salt: hydrochloride) [Example 14, 2-(trans-4-methanesulfonylaminocyclohexylamino)-6-(2-chlorophenyl)-8-methyl-pyrido[2,3-d]pyrimidin-7-one], the melting point was 260.9 to 261.1 °C.

On to `O=C1CCC(Nc2ncc3cc(-c4ccccc4Cl)c(=O)n(CC(F)(F)F)c3n2)CC1` (as salt: hydrochloride) [Example 59], for which the melting point was in the range of 251.2 to 252 °C.

`CS(=O)(=O)N1CCC(Nc2ncc3cc(-c4ccccc4Cl)c(=O)n(C4CC4)c3n2)CC1` (as salt: hydrochloride) [Example 88] registered a melting point of 128 to 141.5 °C.

With `CCS(=O)(=O)CCC(C)Nc1ncc2cc(-c3ccccc3Cl)c(=O)n(C)c2n1` (stereo not shown) (as salt: hydrochloride) [Example 102], the melting point fell in the range of 160.1 to 167 °C.

Compound `Cn1c(=O)c(-c2ccccc2Cl)cc2cnc(N[C@H]3CC[C@H](O)CC3)nc21` (as salt: salt) [Cpd 1] displayed a melting point of 163.4 to 171.1 °C.

`Cn1c(=O)c(-c2ccccc2Cl)cc2cnc(NC3(CO)CCCC3)nc21` (as salt: salt) [Cpd 2] gave a melting point of 213.7 to 214.6 °C.

`N[C@H]1CC[C@H](Nc2ncc3cc(-c4ccccc4Cl)c(=O)[nH]c3n2)CC1` (as salt: salt) [Cpd 17] yielded a melting point of over 300 °C.

`Cn1c(=O)c(-c2ccccc2Cl)cc2cnc(N[C@H]3CC[C@H](O)CC3)nc21` [Cpd 1]: the IC50 at p38 MAP kinase was 20.5 nM.

Take `Cn1c(=O)c(-c2ccccc2Cl)cc2cnc(NC3(CO)CCCC3)nc21` [Cpd 2]: the IC50 on p38 MAP kinase was 41.9 nM.

Consider `Cn1c(=O)c(-c2ccccc2Cl)cc2cnc(NC3CCC(OC=O)CC3)nc21` (stereo not shown) [Cpd 4], for which the melting point was in the range of 196.1 to 196.6 °C.

Compound `CC(=O)OC1CCC(Nc2ncc3cc(-c4ccccc4Cl)c(=O)n(C)c3n2)CC1` (stereo not shown) [Cpd 5] showed a melting point of 200.9 to 201.2 °C.

`Cn1c(=O)c(-c2ccccc2Cl)cc2cnc(NC3CCC4(CC3)OCCCO4)nc21` [Cpd 8]: the melting point is 196.1 to 196.5 °C.

With `O=CO[C@H]1CC[C@H](Nc2ncc3cc(-c4ccccc4Cl)c(=O)[nH]c3n2)CC1` [Cpd 19], the melting point was over 300 °C.

For `CC(C)(O)Cn1c(=O)c(-c2ccccc2Cl)cc2cnc(NC3CCOCC3)nc21` [Cpd 117], the melting point fell in the range of 189 to 191.5 °C.

In turn, `CCCS(=O)(=O)N1CCC(Nc2ncc3cc(-c4ccccc4C)c(=O)n(C)c3n2)CC1.Cl` [Cpd 126] displayed a melting point of 211.7 to 212.6 °C. The IC50 on p38 MAP kinase was 0.3 nM.

Compound `Cc1ccccc1-c1cc2cnc(NC3CCN(S(=O)(=O)CC(F)(F)F)CC3)nc2n(C)c1=O.Cl` [Cpd 128] came in with a melting point of 200 to 204 °C. Also, the IC50 on p38 MAP kinase was 0.6 nM.

For the compound `CCn1c(=O)c(-c2ccccc2Cl)cc2cnc(NC3CCOCC3)nc21.Cl` [Cpd 136], the melting point lay in the range of 185.3 to 190.1 °C. Moreover, the IC50 at p38 MAP kinase amounted to 8.2 nM.

Regarding `Cc1ccccc1-c1cc2cnc(NC3CCSCC3)nc2n(C)c1=O` [Cpd 140], the melting point is 186.6 to 188.1 °C.

Consider `Cn1c(=O)c(-c2ccccc2Cl)cc2cnc(N[C@H]3CC[C@H](N)CC3)nc21` [Example 38], for which the IC50 on p38 MAP kinase was 6.2 nM.

Turning to `O=c1c(-c2ccccc2Cl)cc2cnc(N[C@H]3CC[C@H](O)CC3)nc2n1Cc1ccccc1` [Example 41], on p38 MAP kinase, the IC50 amounted to 5.1 nM.

The compound `Cl.N#CCn1c(=O)c(-c2ccccc2Cl)cc2cnc(N[C@H]3CC[C@H](O)CC3)nc21` [Example 44] had a melting point of 232.1 to 233.4 °C. For the same compound, the IC50 on p38 MAP kinase was 7.8 nM.

Consider `O=c1c(-c2ccccc2Cl)cc2cnc(N[C@H]3CC[C@H](O)CC3)nc2n1CC(F)(F)F` [Example 55], for which the melting point is 227.2 to 230.4 °C.

For the compound `CN1CCN(Nc2ncc3cc(-c4ccccc4Cl)c(=O)n(C)c3n2)CC1` [Example 85], the melting point fell in the range of 125.7 to 128.1 °C.

Turning to `Cn1c(=O)c(-c2ccccc2Cl)cc2cnc(NC3CCN(C(N)=O)CC3)nc21` [compound 11], on p38 MAP kinase, the IC50 came to 4.8 nM.

In the case of `Cn1c(=O)c(-c2ccccc2Cl)cc2cnc(NC3CCN(CC#N)CC3)nc21` [compound 24], the IC50 on p38 MAP kinase was 35.5 nM.

On to `Cn1c(=O)c(-c2ccccc2Cl)cc2cnc(NC3CCC4(CC3)NC(=O)NC4=O)nc21` (stereo not shown) [compound 29], for which the IC50 at p38 MAP kinase turned out to be 41.5 nM.

With `Cn1c(=O)c(-c2ccccc2Cl)cc2cnc(N[C@H]3CC[C@H](NS(C)(=O)=O)CC3)nc21` [compound 37], the IC50 on p38 MAP kinase was found to be 30.5 nM.

Broadly, the melting point is the temperature of the solid-liquid transition. As a reminder, the IC50 is the concentration that gives 50% inhibition.
